Laboratory results as given in patent publication US6022859A, “Inhibitors of β-amyloid toxicity” (Wisconsin Alumni Research Foundation, priority 1997, dated 2000).
Where a SMILES comes first, the peptide text is derived from it. Where no end group is shown, it is not given here. [ ]: non-standard residue; d: D form. Ahx = NCCCCCC(=O)O

Legend:
[1] = tested on: Aβ toxicity; conditions: literature; cited from earlier work
[2] = tested on: Aβ; conditions: literature, cited from earlier work
[3] = Solubility of test peptides (Table 1; PBSA); conditions: for Soluble: Table 1
Procedure: (§4) The solubility and aggregation properties of the test peptides were assessed by visual observation, analytical ultracentrifugation, and/or dynamic light scattering.

[4] = molecular target: T1, Aβ(1-39) (Homo sapiens, UniProt P05067); assay: Dynamic light scattering, Aβ(1-39) aggregation kinetics; assay type: biochemical; conditions: Aβ 0.5 mg/ml, peptide:Aβ molar ratio 2:1
T1 construct: A peptide homologous to the first 39 residues of Aβ, Aβ(1-39), was purchased from AnaSpec, Inc; purchased AnaSpec, Inc. (San Jose, Calif.)
Procedure: Lyophilized Aβ(1-39) was solubilized in 0.1% TFA at 10 mg/ml, then diluted twenty-fold into PBSA or into PBSA containing the test peptide. PBSA was double-filtered through a 0.22 μm filter prior to use. pH was adjusted to 7.4 with 0.5 N NaOH, then the sample was immediately filtered through a 0.45 μm filter directly into a clean light scattering cuvette. In all cases Aβ(1-39) concentration was 0.5 mg/ml and the molar ratio of test peptide to Aβ was 2:1 unless otherwise indicated. Autocorrelation functions at 90° scattering angle were collected as described previously (Shen, et al., 1994, supra). Data were fit using the method of cumulants to derive and apparent hydrodynamic radius.
The effect of the test peptides on aggregation kinetics of Aβ(1-39) was assessed by dynamic light scattering (FIG. 1). FIG. 1 graphs the effect of recognition and hybrid peptides on Aβ aggregation kinetics. Final Aβ concentration was 0.5 mg/ml, Aβ:peptide molar ratio was 1:2 except where indicated. The hydrodynamic radius (measured at a 90° scattering angle) was measured as a function of time.

[5] = tested on: PC-12 cells; assay: Cellular toxicity (MTT assay): effect on Aβ(25-35) toxicity; assay type: cell-based; conditions: co-incubation with Aβ(25-35)
Procedure: (§1) Solutions of recognition or hybrid peptides were prepared by direct dissolution of lyophilized peptide into sterile PBS (with antibiotics). Aβ(1-39) was dissolved in 0.1% TFA at 10 mg/ml, then diluted twenty-fold into sterile PBS (with antibiotics) or PBS containing the hybrid or recognition peptides. Solutions were prepared at 2:1 or 1:1 peptide:Aβ molar ratio. The samples were incubated at room temperature for 7 days, then diluted five-fold with medium and incubated for one day. As a control, PBS was diluted 5:1 with medium and added to some wells.
15-25-K6 shares essentially no homology with Aβ(25-35), which also forms fibrillar aggregates and is toxic to cells. Aβ(25-35) decreased MTT reduction to 45% of controls; co-incubation of 15-25-K6 with Aβ(25-35) had no effect on the toxicity of Aβ(25-35).

[6] = molecular target: T2, Aβ(25-35) (Homo sapiens, UniProt P05067); assay: ThT fluorescence spectroscopy with Aβ(25-35); assay type: biochemical; conditions: mixed with Aβ(25-35)
T2 construct: A peptide homologous to the 25-35 residues of Aβ, Aβ(25-35), was purchased from Sigma; purchased Sigma (St. Louis, Mo.)

[7] = tested on: PC-12 cells; assay: Cellular toxicity (MTT assay): protection from Aβ(1-39) toxicity; assay type: cell-based; conditions: both molar ratios tested (2:1 and 1:1)
Procedure: as §1
Freshly-prepared solutions of Aβ(1-39) were not toxic to the cells, consistent with other reports in the literature (Shearman, et al., supra). None of the test peptides alone were toxic. […] FIG. 4 graphs the effect of recognition and hybrid peptides on Aβ toxicity. Aβ(0.5 mg/ml) was incubated with the recognition peptide at a 1:2 Aβ:peptide molar ratio (A), or with the hybrid peptides at a 1:1 or 1:2 Aβ:peptide molar ratio (B), for one week, following which the solution was diluted five-fold and added to monolayer cultures of PC-12 cells. Cell viability was assessed with the MTT assay; results are reported relative to untreated wells. […] The ability of each peptide to protect cells from Aβ toxicity was assessed by a upper-tailed t-test; *, p<0.01; **, p<0.001.

[8] = molecular target: T1, Aβ(1-39); assay: Static light scattering, Aβ(1-39) aggregate molecular weight and morphology (Kratky plot); assay type: biochemical; conditions: peptide:Aβ 2:1 (16-20-K6 1:2)
Procedure: Solutions of Aβ(1-39) alone or with test peptide at a 2:1 peptide:Aβ molar ratio were prepared as described above. Solutions were incubated at room temperature for 24 hours, after which scattered intensity data as a function of angle were collected and analyzed as described elsewhere (Shen, C.-L. and Murphy, Biophys. J., 1995, supra).
The effect of the test peptide on aggregate size and morphology was probed with static light scattering. […] Thus, the average molecular weight of Aβ(1-39) aggregates was not dramatically affected by any of the peptides tested.
A convenient tool for abstracting particle shape information from angular dependence data is the so-called Kratky plot. FIGS. 2A and B are Kratky plots of Aβ-peptide solutions. Aβ(1-39) was co-incubated with recognition (A) or hybrid (B) peptides for 24 hours, after which SLS data were collected, analyzed, and plotted as Kratky plots. In all cases, Aβ(1-39) concentration was 0.5 mg/ml and the peptide:Aβ molar ratio was 2:1, except for 16-20-K6 for which the molar ratio was lowered to 1:2. In FIG. 2, q is the scattering vector, which is related to the scattering angle, R is the Rayleigh ratio, a function of the scattering intensity, c is the concentration, and K is an instrument constant. Referring to FIG. 2A, the rising curves with an intermediate plateau are characteristic of semiflexible linear chains. […]

[9] = molecular target: T1, Aβ(1-39); assay: Electron microscopy of Aβ(1-39) fibrils; assay type: biochemical; conditions: aged approximately one week
Procedure: Solutions of Aβ(1-39) alone (0.5 mg/ml) or with 1 mg/ml 15-25-K6 were prepared as described above and aged at room temperature for approximately one week. A drop of the peptide solution was placed on a Pioloform coated 300 mesh electron microscope copper grid. After blotting, a drop of 1% ammonium molybdate was placed on the grid while being held with fine forceps. The grid was blotted on filter paper and allowed to dry before observing the specimen in a JEOL (Peabody, Mass.) 100 CX Electron Microscope at 60 kV. To further examine the aggregates, electron micrographs were taken. FIG. 3A and B are electron micrographs of (A) Aβ(1-39) alone and (B) Aβ(1-39) with 15-25-K6. Magnification is 72,500x.

[10] = molecular target: T1, Aβ(1-39); assay: ThT fluorescence spectroscopy with Aβ(1-39); assay type: biochemical; conditions: one week incubation at room temperature
Procedure: A few samples used for cellular toxicity assays were tested for ThT fluorescence after one week aging and prior to dilution into cell culture medium. ThT (Sigma, St. Louis, Mo.) was dissolved at 100 μM in PBSA. Forty μl peptide solution and 40 μl ThT stock solution were mixed with 920 μl PBSA and briefly vortexed. Fluorescence emission spectra were taken using a Model M-3 Alphascan (Photon Technology International, South Brunswick, N.J.) spectrofluorimeter, with excitation at 450 nm. An increase in fluorescence with a maximum at 482 nm is indicative of amyloid (LeVine, H. Protein Sci. 2:404-410, 1993). Fluorescence intensity for diluted ThT in the absence of peptide was determined and subtracted from sample intensities. ThT fluorescence intensity was measured for Aβ-amyloid(1-39) alone or mixed with 18-25 or 15-25-K6 after one week incubation at room temperature. Samples were diluted 25-fold just prior to measurement. […] Because 16-25 was not soluble in PBS, the assay could not be repeated in a like manner for that peptide; however, a parallel experiment was conducted by dissolution of 16-25 or 18-25 into 35% ACN/TFA followed by mixing with Aβ(1-39) and dilution into PBS.

[11] = Circular dichroism spectroscopy, secondary structure of peptide alone; assay type: physicochemical; conditions: phosphate buffer (0.1 M, pH 7.4)
Procedure: (§2) β(1-39), 15-25-K6, or a mixture of β(1-39) and 15-25-K6 (1:2 molar ratio) were dissolved in 0.01 M phosphate buffer, pH 7.2. The final concentration was 0.5 mg/ml for each peptide. The solution was passed through a 0.45 μm Millipore (Bedford, Mass.) filter to remove dust and then degassed. Circular dichroism spectra in the far UV (190-240 nm) were obtained using a modified Cary Model 60 spectropolarimeter (On-line Instrument Systems, Bogart, Calif.) and analyzed for secondary structure as described (Shen, C.-L., et al., Biophys. J. 65:2383-2395, 1993).
(§3) Circular dichroism spectra of Aβ(1-39) and 15-25-K6 in phosphate buffer (0.1 M. pH 7.4) were collected and quantitatively analyzed for secondary structure. Aβ(1-39) was 65% β-sheet and 30% random coil (spectra not shown), in line with previous measurements (Shen, C.-L., et al., supra, 1994). The secondary structure of 15-25-K6 was essentially the same (64% Aβ-sheet, 36% random coil, data not shown).

[12] = Self-aggregation of test peptides alone (sedimentation equilibrium ultracentrifugation, dynamic light scattering, visual observation); assay type: physicochemical; conditions: peptide alone
Procedure: as §4

[13] = molecular target: T1, Aβ(1-39); assay: Circular dichroism spectroscopy, effect of peptide on Aβ(1-39) spectra; assay type: biochemical; conditions: Aβ(1-39):peptide 1:2 molar ratio
Procedure: as §2, §3

[14] = molecular target: Aβ (Homo sapiens, UniProt P05067); conditions: literature; cited from earlier work
Sequence of Aβ (Homo sapiens, UniProt P05067) (P05067 672-711 limits assumed): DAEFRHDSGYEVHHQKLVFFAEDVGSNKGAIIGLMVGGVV

T1 sequence (P05067 672-710): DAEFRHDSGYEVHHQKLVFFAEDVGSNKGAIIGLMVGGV

Nc1c(/N=N/c2ccc(-c3ccc(/N=N/c4cc(S(=O)(=O)O)c5ccccc5c4N)cc3)cc2)cc(S(=O)(=O)O)c2ccccc12 [Congo red]
effect on Aβ toxicity [1]: reduce Aβ toxicity
effect on Aβ aggregation / fibril formation [2]: disrupt Aβ aggregation

VFFAEDVG [18-25, VFFAEDVG]
Soluble [3]: yes

CC(C)C[C@H](NC(=O)[C@@H](N)CCCCN)C(=O)N[C@H](C(=O)N[C@@H](Cc1ccccc1)C(=O)N[C@@H](Cc1ccccc1)C(=O)O)C(C)C [16-20, KLVFF]
Soluble [3]: yes

VLFKF [16-20S, VLFKF]
Soluble [3]: yes

FAEDVGKKKKKK [20-25-K6, FAEDVGKKKKKK]
solubility in PBSA [3]: readily soluble
Soluble [3]: yes

GQKLVFFAEDVGGaKKKKKK (GQKLVFFAEDVGG[Ahx]KKKKKK) [15-25-K6]
effect on Aβ aggregate size / growth rate (hydrodynamic radius vs time) [4]: dramatic increase
effect on toxicity of Aβ(25-35) [5]: no effect
effect on ThT fluorescence of Aβ(25-35) [6]: neither a positive nor a negative effect
protection against Aβ(1-39) toxicity [7]: intermediate in protective effect
increase in molecular weight of Aβ aggregates ([8]; 24 hours after mixing): 2-2.5 fold
effect on Aβ(1-39) aggregate shape / morphology (Kratky plot) ([8]; 24 hours co-incubation): greatest effect on the particle shape
effect on Aβ(1-39) fibril morphology (electron micrographs) [9]: did not prevent fibril formation but did appear to reduce the average length of fibrils, and increase the extent of fibril entanglement
effect on ThT fluorescence intensity of Aβ(1-39) [10]: reduced the ThT fluorescence intensity of Aβ(1-39) somewhat
random coil content [11]: 36%
β-sheet content [11]: 64%
aggregation state by sedimentation equilibrium ultracentrifugation [12]: monomeric
effect on circular dichroism spectra of Aβ(1-39) [13]: did not significantly alter

OC[C@H]1O[C@@H]2O[C@H]3[C@H](O)[C@@H](O)[C@@H](O[C@H]4[C@H](O)[C@@H](O)[C@@H](O[C@H]5[C@H](O)[C@@H](O)[C@@H](O[C@H]6[C@H](O)[C@@H](O)[C@@H](O[C@H]7[C@H](O)[C@@H](O)[C@@H](O[C@H]8[C@H](O)[C@@H](O)[C@@H](O[C@H]1[C@H](O)[C@H]2O)O[C@@H]8CO)O[C@@H]7CO)O[C@@H]6CO)O[C@@H]5CO)O[C@@H]4CO)O[C@@H]3CO [β-Cyclodextrin]
effect on Aβ toxicity [1]: partially reduces Aβ toxicity

KLVFFKKKKKK [16-20-K6, KLVFFKKKKKK]
solubility in PBSA [3]: readily soluble
Soluble [3]: yes

FFAEDVG [19-25, FFAEDVG]
Soluble [3]: yes

QKLVTTAE [literature octapeptide with substitutions for the two Phe residues at positions 19 and 20]
effect on Aβ fibril formation ([2]; 10-fold molar excess, electron microscopy): inhibited fibril formation

KKLVFFA
interaction with Aβ [14]: interacts with the homologous sequence in Aβ

CCCCCCCCCCCCCCCC[N+]1(C)CCCCC1.[Br-] [hexadecyl-N-methylpiperidinium bromide]
effect on Aβ aggregation / fibril formation [2]: inhibits Aβ fibril formation

FAEDVG [20-25, FAEDVG]
Soluble [3]: yes

CC(C)C[C@H](NC(=O)[C@@H](N)CCCCN)C(=O)N[C@H](C(=O)N[C@@H](Cc1ccccc1)C(=O)O)C(C)C [16-19, KLVF] (H-KLVF-OH)
Soluble [3]: yes
